Results on eleven compounds are retold here after ChEMBL document CHEMBL1201862, “PubChem BioAssay data set” (2004).

Each structure is given as a SMILES string.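 A five-concentration, 48-hour dose response in 96-well plates underlies each endpoint, interpolated linearly between surrounding concentrations. Abbreviation: GI50, concentration required for 50% inhibition of growth.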 The source made the active and inactive calls. Cut-off read from the data, not from the text of the source: active = GI50 up to about 1.1 µM and inactive = higher.

Some test systems named below: A498; BT-549; CCRF-CEM; HCT-116; HCT-15; HOP-92; IGROV-1; M14; MDA-MB-435; MDA-N; NCI-H460; OVCAR-3; OVCAR-5; OVCAR-8; SK-OV-3; SNB-75; SW-620; UACC-257; UO-31.
Experiment in all cases: growth of human tumour cells (NCI), 48 h

Take `[N-]=[N+]=NCC(=O)c1cnc(O)nc1O`: the GI50 was > 100 µM (inactive) with A498; > 100 µM (inactive) in the assay on BT-549; > 100 µM (inactive) in the assay on CCRF-CEM; > 100 µM (inactive) with HCT-116; above 100 µM with HCT-15; > 100 µM (inactive) with HOP-92. In addition, the GI50 in the assay with IGROV-1, with M14, with MDA-MB-435, in the assay with MDA-N, in the assay with NCI-H460 and in the assay with OVCAR-3 was > 100 µM (inactive) in each case. For the same compound, the GI50 in the assay on OVCAR-5, in the assay with OVCAR-8, in the assay with SK-OV-3, in the assay on SNB-75, in the assay on SW-620 and in the assay on UACC-257 was > 100 µM (inactive) each time. Besides, the GI50 with UO-31 is > 100 µM (inactive).
With `O=C1/C(=C/c2ccccc2)CCc2ccc(Cl)nc21`, the GI50 in the assay on A498 is 18.3 µM (inactive); in the assay with BT-549, 13.9 µM (inactive); in the assay with CCRF-CEM, 1.43 µM (inactive); in the assay on HCT-116, 2.55 µM (inactive); with HCT-15, 3.52 µM; with HOP-92, 15.8 µM (inactive). Further, the GI50 with IGROV-1 was 4.5 µM (inactive); with M14, 8.04 µM (inactive); in the assay with MDA-MB-435, 6.5 µM (inactive); in the assay on MDA-N, 4 µM (inactive); with NCI-H460, 18.2 µM (inactive); in the assay on OVCAR-3 it was 21.8 µM (inactive). In addition, the GI50 is 17.3 µM (inactive) in the assay on OVCAR-5; 7.8 µM (inactive) in the assay with OVCAR-8; 31.6 µM (inactive) in the assay with SK-OV-3; 17.2 µM (inactive) with SNB-75; 3.98 µM (inactive) with SW-620; 5.4 µM (inactive) with UACC-257. Also, the GI50 in the assay with UO-31 is 7.64 µM (inactive).
As for `CC1=Cc2ccc(C)cc2C(=O)C1=O`, the GI50 in the assay with A498 was 22.4 µM (inactive); in the assay on BT-549 it was 21.2 µM (inactive); in the assay on CCRF-CEM it was 0.176 µM (active); with HCT-116, 5.47 µM (inactive); in the assay on HCT-15, 19.3 µM; in the assay with HOP-92, 6.18 µM (inactive). In addition, the GI50 with IGROV-1 is 14.4 µM (inactive); in the assay with M14, 4.81 µM (inactive); in the assay on MDA-MB-435, 2.06 µM (inactive); with MDA-N, 4.18 µM (inactive); in the assay on NCI-H460 it was 19.8 µM (inactive); in the assay on OVCAR-3, 4.79 µM (inactive). Further, the GI50 was 18.3 µM (inactive) with OVCAR-5; 5.3 µM (inactive) with OVCAR-8; 13.9 µM (inactive) with SK-OV-3; 8.3 µM (inactive) in the assay on SNB-75; 2.81 µM (inactive) with SW-620; 5.89 µM (inactive) in the assay with UACC-257. The GI50 in the assay with UO-31 was 1.64 µM (inactive).
For the compound `CN1CCN(CCCCN2c3ccccc3Sc3cc(N=[N+]=[N-])ccc32)CC1`, the GI50 in the assay with A498 was 9.14 µM (inactive); with BT-549 it was 7.76 µM (inactive); in the assay on CCRF-CEM, 2.14 µM (inactive); in the assay with HCT-116, 1.62 µM (inactive); in the assay on HCT-15, 2.28 µM; in the assay with HOP-92, 1.94 µM (inactive). For the same compound, the GI50 in the assay with IGROV-1 was 1.93 µM (inactive); in the assay on M14 it was 1.72 µM (inactive); in the assay with MDA-MB-435, 1.7 µM (inactive); in the assay with MDA-N, 3.41 µM (inactive); in the assay with NCI-H460, 1.94 µM (inactive); in the assay on OVCAR-3, 2.55 µM (inactive). Moreover, the GI50 with OVCAR-5 was 12.6 µM (inactive); in the assay on OVCAR-8 it was 1.82 µM (inactive); with SK-OV-3, 8.49 µM (inactive); with SNB-75 it was 3.39 µM (inactive); in the assay with SW-620, 1.98 µM (inactive); with UACC-257, 1.99 µM (inactive). Also, in the assay on UO-31, the GI50 is 0.586 µM (active).
Take `CCCCCCCCCCCCCCCCCCOCC(O)COP(=O)(O)OCC1OC(n2cc(F)c(=O)[nH]c2=O)CC1O` (centres undefined): the GI50 was 2.66 µM (inactive) with A498; 13.7 µM (inactive) in the assay with BT-549; 0.318 µM (active) with CCRF-CEM; 1.29 µM (inactive) in the assay with HCT-116; 10.8 µM in the assay on HCT-15; 4.02 µM (inactive) with HOP-92. Besides, the GI50 in the assay with IGROV-1 was 11.4 µM (inactive); in the assay on M14, 2.96 µM (inactive); in the assay with MDA-MB-435, 17.7 µM (inactive); in the assay with MDA-N, 13.4 µM (inactive); with NCI-H460, 0.678 µM (active); in the assay on OVCAR-3, 13.7 µM (inactive). The GI50 with OVCAR-5 was 12.5 µM (inactive); in the assay on OVCAR-8 it was 1.64 µM (inactive); in the assay with SK-OV-3, 12.8 µM (inactive); in the assay with SNB-75 it was 2.89 µM (inactive); with SW-620, 13.7 µM (inactive); with UACC-257, 12.8 µM (inactive). Also, the GI50 with UO-31 was 1.16 µM (inactive).
For `CCOC(=O)C(=O)/C(=C/N1C(=O)CC(=O)NC1=S)C(=O)OCC`, the GI50 in the assay with A498 is 83.6 µM (inactive); with BT-549 it was > 100 µM (inactive); in the assay on CCRF-CEM it was > 100 µM (inactive); in the assay with HCT-116, > 100 µM (inactive); in the assay on HCT-15, above 100 µM; in the assay on HOP-92, 9.29 µM (inactive). Also, the GI50 with IGROV-1 was > 100 µM (inactive); in the assay on M14, > 100 µM (inactive); with MDA-MB-435 it was > 100 µM (inactive); with MDA-N, > 100 µM (inactive); in the assay on NCI-H460 it was > 100 µM (inactive); in the assay with OVCAR-3 it was 0.719 µM (active). Besides, the GI50 was > 100 µM (inactive) in the assay with OVCAR-5; > 100 µM (inactive) with OVCAR-8; > 100 µM (inactive) in the assay with SK-OV-3; 10.3 µM (inactive) in the assay with SNB-75; > 100 µM (inactive) in the assay with SW-620; > 100 µM (inactive) in the assay on UACC-257. The GI50 in the assay on UO-31 was 26.8 µM (inactive).
Take `Sc1nnc(Cc2ccc(Cl)cc2)[nH]1`: the GI50 in the assay with A498 is 57.4 µM (inactive); in the assay on BT-549 it was > 100 µM (inactive); in the assay with CCRF-CEM, 63.1 µM (inactive); with HCT-116, 51.4 µM (inactive); in the assay with HCT-15, 59.6 µM; in the assay with HOP-92, 16.2 µM (inactive). Moreover, the GI50 in the assay with IGROV-1 is 44.5 µM (inactive); in the assay on M14, > 100 µM (inactive); in the assay on MDA-MB-435, 88.3 µM (inactive); with MDA-N, > 100 µM (inactive); in the assay on NCI-H460 it was 50.8 µM (inactive); in the assay with OVCAR-3 it was > 100 µM (inactive). Also, the GI50 in the assay on OVCAR-5 was > 100 µM (inactive); in the assay on OVCAR-8, 46.6 µM (inactive); in the assay on SK-OV-3, 68.5 µM (inactive); in the assay on SNB-75, 33.2 µM (inactive); in the assay on SW-620 it was 85.5 µM (inactive); with UACC-257 it was 60.5 µM (inactive). Moreover, the GI50 with UO-31 is 32.4 µM (inactive).
Take `OCCOc1ccc(-c2cc(-c3ccccn3)nc(-c3ccccn3)c2)cc1`: the GI50 was 3.3 µM (inactive) with A498; 0.352 µM (active) with BT-549; 0.0618 µM (active) in the assay with CCRF-CEM; 0.115 µM (active) with HCT-116; 0.0574 µM with HCT-15; 0.499 µM (active) in the assay with HOP-92. Moreover, the GI50 in the assay on IGROV-1 is 0.286 µM (active); with M14, 0.219 µM (active); in the assay with MDA-MB-435 it was 0.526 µM (active); in the assay on MDA-N, 0.697 µM (active); with NCI-H460, 0.0849 µM (active); with OVCAR-3 it was 0.11 µM (active). For the same compound, the GI50 with OVCAR-5 is 0.192 µM (active); in the assay on OVCAR-8, 0.07 µM (active); in the assay on SK-OV-3, 0.308 µM (active); in the assay with SNB-75 it was 0.458 µM (active); in the assay on SW-620 it was 0.267 µM (active); in the assay with UACC-257, 0.481 µM (active). In the assay with UO-31, the GI50 is 0.124 µM (active).
As for `CC(C)NCCCNc1c2ccccc2nc2cccc([N+](=O)[O-])c12`, the GI50 is 0.0164 µM (active) in the assay with A498; 0.0421 µM (active) with BT-549; 0.0142 µM (active) in the assay on CCRF-CEM; 0.0262 µM (active) in the assay on HCT-116; 0.0504 µM in the assay on HCT-15; 0.00389 µM (active) with HOP-92. For the same compound, the GI50 was < 0.001 µM (active) in the assay on IGROV-1; 0.0113 µM (active) in the assay with M14; 0.0103 µM (active) with MDA-MB-435; 0.0138 µM (active) in the assay on MDA-N; 0.00227 µM (active) in the assay with NCI-H460; 0.00834 µM (active) in the assay on OVCAR-3. The GI50 in the assay with OVCAR-5 is 0.0128 µM (active); in the assay with OVCAR-8 it was 0.00566 µM (active); in the assay with SK-OV-3, 0.0566 µM (active); with SNB-75, 0.0308 µM (active); in the assay on SW-620, 0.00514 µM (active); in the assay with UACC-257, 0.0445 µM (active). Besides, the GI50 with UO-31 was 0.123 µM (active).
In the case of `O=C(N/N=C1/C(=O)c2c3ccccc3cc3cccc1c23)c1ccccc1`, the GI50 was 22.1 µM (inactive) with A498; > 100 µM (inactive) in the assay with BT-549; > 53.1 µM (inactive) with CCRF-CEM; 30.8 µM (inactive) in the assay with HCT-116; 49.1 µM with HCT-15; 51.9 µM (inactive) with HOP-92. For the same compound, the GI50 is 25.4 µM (inactive) in the assay with IGROV-1; 48.4 µM (inactive) with M14; 25.9 µM (inactive) with MDA-MB-435; 39.4 µM (inactive) in the assay on MDA-N; 16.9 µM (inactive) with NCI-H460; 42.3 µM (inactive) in the assay on OVCAR-3. In addition, the GI50 in the assay on OVCAR-5 was 34.3 µM (inactive); with OVCAR-8, 31.1 µM (inactive); with SK-OV-3 it was 31.8 µM (inactive); with SNB-75 it was 27.2 µM (inactive); with SW-620, > 100 µM (inactive); with UACC-257, > 62.1 µM (inactive). For the same compound, the GI50 in the assay on UO-31 is 30.9 µM (inactive).
For `O=C1O[C@H]2[C@@H]3OC(=O)c4cc(O)c(O)c(O)c4-c4c(cc(O)c(O)c4O)C(=O)OC[C@H]2O[C@@H](OC(=O)c2cc(O)c(O)c(O)c2)[C@@H]3OC(=O)c2cc(O)c(O)c3c2[C@@H]2C1=CC(=O)C(O)(O)C2(O)O3` (some centres undefined), the GI50 is 82.8 µM (inactive) in the assay on A498; 72.8 µM (inactive) in the assay on BT-549; 27 µM (inactive) in the assay with CCRF-CEM; 16.9 µM (inactive) in the assay on HCT-116; 21.9 µM in the assay with HCT-15; 27.7 µM (inactive) in the assay with HOP-92. In addition, the GI50 in the assay with IGROV-1 is 52.8 µM (inactive); in the assay on M14, 19.7 µM (inactive); in the assay with MDA-MB-435, 16.7 µM (inactive); in the assay on MDA-N, 16 µM (inactive); in the assay on NCI-H460, 33 µM (inactive); in the assay with OVCAR-3, 35.6 µM (inactive). Besides, the GI50 in the assay with OVCAR-5 was 16.4 µM (inactive); with OVCAR-8 it was 19.5 µM (inactive); with SK-OV-3, 11 µM (inactive); with SNB-75, 24.6 µM (inactive); in the assay with SW-620 it was 18.5 µM (inactive); in the assay with UACC-257, 51.6 µM (inactive). For the same compound, the GI50 in the assay with UO-31 was 21.7 µM (inactive).
